Read-outs that look alike come from different tables or passages of the source.
Legend:
[1] = system: Transgenic Arabidopsis thaliana plants with wildtype or mutated PPO sequences; assay: Tolerance of transgenic Arabidopsis thaliana plants to PPO-inhibiting herbicides in 48-well plates (growth inhibition); type: in vivo; settings: seven to ten days after seeding
Experimental: Transformed cells are selected in selection media supplemented with 0.5-1.5 μM imazethapyr for 3-4 weeks. Transgenic plantlets are regenerated on plant regeneration media and rooted afterwards. Transgenic plantlets are subjected to TaqMan analysis for the presence of the transgene before being transplanted to potting mixture and grown to maturity in greenhouse. Arabidopsis thaliana are transformed with wildtype or mutated PPO sequences by floral dip method as described by McElver and Singh (WO 2008/124495). Transgenic Arabidopsis plants are subjected to TaqMan analysis for analysis of the number of integration loci. Transformation of Otyza sativa (rice) are done by protoplast transformation as described by Peng et al. (U.S. Pat. No. 6,653,529) TO or T1 transgenic plant of soybean, corn, and rice containing mutated PPO sequences are tested for improved tolerance to PPO-derived herbicides in greenhouse studies and mini-plot studies with the following PPO-inhibiting herbicides: saflufenacil, 1,5-dimethyl-6-thioxo-3-(2,2,7-trifluoro-3-oxo-4-(prop-2-ynyl)-3,4-dihydro-2H-benzo[b][1,4]oxazin-6-yl)-1,3,5-triazinane-2,4-dione (CAS 1258836-72-4), flumioxazin, butafenacil, acifluorfen, lactofen, bifenox, sulfentrazone, and photosynthesis inhibitor diuron as negative control.
Transgenic Arabidopsis thaliana plants are assayed for improved tolerance to saflufenacil, 1,5-dimethyl-6-thioxo-3-(2,2,7-trifluoro-3-oxo-4-(prop-2-ynyl)-3,4-dihydro-2H-benzo[b][1,4]oxazin-6-yl)-1,3,5-triazinane-2,4-dione (CAS 1258836-72-4), flumioxazin, butafenacil, acifluorfen, lactofen, bifenox, sulfentrazone, and photosynthesis inhibitor diuron as negative control in 48-well plates. Therefore, T2 seeds are surface sterilized by stirring for 5 min in ethanol+water (70+30 by volume), rinsing one time with ethanol+water (70+30 by volume) and two times with sterile, deionized water. The seeds are resuspended in 0.1% agar dissolved in water (w/v) Four to five seeds per well are plated on solid nutrient medium consisting of half-strength murashige skoog nutrient solution, pH 5.8 (Murashige and Skoog (1962) Physiologia Plantarum 15: 473-497). Compounds are dissolved in dimethylsulfoxid (DMSO) and added to the medium prior solidification (final DMSO concentration 0.1%). Multi well plates are incubated in a growth chamber at 22° C., 75% relative humidity and 110 μmol Phot*m^−2*s^−1 with 14:10 h light: dark photoperiod. Growth inhibition is evaluated seven to ten days after seeding in comparison to wild type plants.

[2] = system: Nicotiana benthamiana leaf discs; assay: PSII yield inhibition (chlorophyll fluorescence, imaging PAM) in transiently transformed tobacco leaf discs; type: cell-based; settings: read-out: IC50 of PSII yield inhibition
Description: Transient expression of PPO sequences (e.g. SEQ ID NO: 184) as wildtype or with respective mutations were done as described previously (Voinnet O., et al., 2003, The Plant Journal 33, 949-956). In brief, cloning of GOI and Agrobacterium transformation (strain: GV2260) were done as described in EXAMPLE 5. Young leaves of
Nicotiana benthamiana were infiltrated with transgenic Agrobacterium suspension (OD^600 of 1.0) harboring binary vector constructs containing a GO/gene controlled by a promoter and terminator sequence. 48 h to 72 h after infiltration punches of leave discs (0.75 cm in diameter) were transferred to 6-well plates with medium (half strength Linsmaier-Skoog (Linsmaier and Skoog (1965) Physiol. Plant. 18: 100-127) nutrient solution or water) containing herbicide of interest in different concentrations. […]
Leaf discs, generated as described in EXAMPLE 14, expressing a protein encoded by GOI, were subjected to analysis on improved tolerance to herbicide treatment. For analysis of herbicide damage, chlorophyll fluorescence were identified as indicative marker (Dayan and Zaccaro (2012) Pest. Biochem. Physiol. 102: 189-197). […] PSII yield were measured as per manufacturer instructions. Tolerance factors were calculated based on IC50 values of PSII yield inhibition of transformed versus empty vector-transformed leaf discs. […]

[3] = gene CHLSP_PPO_wt_tpFNR, Chloroflexus sp. (SEQ ID NO: 21)
[4] = gene OPITE_PPO_wt_tpFNR, Opitutus marinus (SEQ ID NO: 9)
[5] = gene RHOMA_PPO_F353V_tpFNR, Rhodotermus marinus (SEQ ID NO: 3 oder 5)
[6] = gene RHOMA_PPO_wt_tpFNR, Rhodotermus marinus (SEQ ID NO: 3 oder 5)
[7] = gene hemG_tpFNR, Escherichia coli (SEQ ID NO: 184)

| SMILES | improved tolerance (growth inhibition in comparison to wild type plants) [1, 3] | improved tolerance (growth inhibition in comparison to wild type plants) [1, 4] | improved tolerance (growth inhibition in comparison to wild type plants) [1, 5] | improved tolerance (growth inhibition in comparison to wild type plants) [1, 6] | improved tolerance (growth inhibition in comparison to wild type plants) [1, 7] | IC50 ([2]; empty vector-transformed leaf discs, treated for 48 h) | improved tolerance (growth inhibition in comparison to wild type plants) ([1]; gene AC IB A_hemJ_wt_tpFNR, Acinetobacter baylyi (SEQ ID NO: 312)) | improved tolerance (growth inhibition in comparison to wild type plants) ([1]; gene CALNI_PPO_wt_tpFNR, Calditerrivibrio nitroreducens (SEQ ID NO: 48)) | improved tolerance (growth inhibition in comparison to wild type plants) ([1]; gene CANME_PPO_wt_tpFNR, Candidatus methylomirabilis (SEQ ID NO: 54 or 57)) | improved tolerance (growth inhibition in comparison to wild type plants) ([1]; gene HYDTH_PPO_wt_tpFNR, Hydrogenobacter thermophilus (SEQ ID NO: 27)) | improved tolerance (growth inhibition in comparison to wild type plants) ([1]; gene LARHO_PPO_wt_tpFNR, Laribacter hongkongensis (SEQ ID NO: 34)) | IC50 ([2]; 48 h) |
| --- | --- | --- | --- | --- | --- | --- | --- | --- | --- | --- | --- | --- |
| C#CCN1C(=O)C(F)(F)Oc2cc(F)c(-n3c(=O)n(C)c(=S)n(C)c3=O)cc21 [BAS 850H, 1,5-dimethyl-6-thioxo-3-(2,2,7-trifluoro-3-oxo-4-(prop-2-ynyl)-3,4-dihydro-2H-benzo[b][1,4]oxazin-6-yl)-1,3,5-triazinane-2,4-dione] | 1500 | 9 | 1 | 1 | 4433 | 11 nM | – | – | – | – | – | – |
| CC(C)N(C)S(=O)(=O)NC(=O)c1cc(-n2c(=O)cc(C(F)(F)F)n(C)c2=O)c(F)cc1Cl [Saflufenacil, saflufenacil] | 640 | 14 | 1 | 1 | 332 | – | 1 | 1 | 1 | 10 | 1 | 110 nM |
